Laboratory results reported in patent publication US20260224583A1, “COMPOSITIONS USEFUL FOR MODULATING SPLICING” (Skyhawk Therapeutics, Inc., priority 2023, published 2026).

Test system: ATXN3 transcripts containing exon 4 (E4E5)
Assay: ATXN3 Quantitative Splicing Assay (qPCR, E4E5 primers/probe)
Type: cell-based
Settings: Homo sapiens; SK-N-MC cells, 24 h treatment, 30 μM to 0.6 nM; read-out: ATXN3 Potency - Splicing E4E5 IC50
Method: Human neuroblastoma SK-N-MC cells were plated in 384-well plates at 20,000 cells/well. Twenty-four hours after plating, cells were treated with compounds for 24 h at appropriate concentrations ranging from 30 μM to 0.6 nM (0.3% DMSO). Treated cells were lysed in 15 μL of lysis buffer, and cDNA was synthesized using the Fast Advanced Cells-to-Ct kit. Two μL of each cDNA was used in qPCR reactions to confirm the exon 4 skipped transcripts of ATXN3. A second set of primers/probe E4E5 was used to detect the transcripts containing exon 4. The third set of primers/probe E8E9 was used to detect total gene level of ATXN3. The qPCR reactions were prepared in 384-well plates in 10 μL volume, using TaqMan™ Fast Advanced Master Mix with primers and probes shown in the table below. Reactions were run in a Quant Studio 6 qPCR instrument with default settings.
The primers and probes are listed below in Table 3.

Row | SMILES | IC50
1 | C[C@H](F)[C@H](N)Cc1cc2c(NCc3ccco3)nc(Cl)nn2c1Cl [Compound 2, 6-((2R,3S)-2-amino-3-fluorobutyl)-2,7-dichloro-N-(furan-2-ylmethyl)pyrrolo[2,1-f][1,2,4]triazin-4-amine] | 101 to 500 nM
2 | N[C@@H](CF)Cc1cc2c(NCc3ccco3)nc(Cl)nn2c1Cl [Compound 3, (R)-6-(2-amino-3-fluoropropyl)-2,7-dichloro-N-(furan-2-ylmethyl)pyrrolo[2,1-f][1,2,4]triazin-4-amine] | 0.01 to 100 nM
3 | N[C@@H](COC(F)F)Cc1cc2c(NCc3ccco3)nc(Cl)nn2c1Cl [Compound 5, (R)-6-(2-amino-3-(difluoromethoxy)propyl)-2,7-dichloro-N-(furan-2-ylmethyl)pyrrolo[2,1-f][1,2,4]triazin-4-amine] | 101 to 500 nM
4 | C[C@H](N)Cc1cc2c(NCc3ccco3)nc(Cl)nn2c1Cl [Compound 9] | 0.01 to 100 nM
5 | C[C@H](N)Cc1cc2c(NCc3ccco3)nc(Cl)nn2c1Br [Compound 10] | 101 to 500 nM
6 | N[C@@H](CCOC(F)(F)F)Cc1cc2c(NCc3ccco3)nc(Cl)nn2c1Br [Compound 15] | 101 to 500 nM
7 | N[C@@H](CCOC(F)F)Cc1cc2c(NCc3ccco3)nc(Cl)nn2c1Br [Compound 16] | 0.01 to 100 nM
8 | N[C@H](Cc1cc2c(NCc3ccco3)nc(Cl)nn2c1Cl)CC1CC1 [Compound 17] | 101 to 500 nM

Further lines, results first:

Row | IC50 | SMILES
9 | 0.01 to 100 nM | C[C@H](F)[C@H](N)Cc1cc2c(NCc3ccco3)nc(Cl)nn2c1Br [Compound 1, 6-((2R,3S)-2-amino-3-fluorobutyl)-7-bromo-2-chloro-N-(furan-2-ylmethyl)pyrrolo[2,1-f][1,2,4]triazin-4-amine]
10 | 0.01 to 100 nM | N[C@@H](CF)Cc1cc2c(NCc3ccco3)nc(Cl)nn2c1Br [Compound 4, (R)-6-(2-amino-3-fluoropropyl)-7-bromo-2-chloro-N-(furan-2-ylmethyl)pyrrolo[2,1-f][1,2,4]triazin-4-amine]
11 | 101 to 500 nM | N[C@@H](COC(F)F)Cc1cc2c(NCc3ccco3)nc(Cl)nn2c1Br [Compound 6, (R)-6-(2-amino-3-(difluoromethoxy)propyl)-7-bromo-2-chloro-N-(furan-2-ylmethyl)pyrrolo[2,1-f][1,2,4]triazin-4-amine]
12 | 101 to 500 nM | COC[C@H](N)Cc1cc2c(NCc3ccco3)nc(Cl)nn2c1Cl [Compound 7, (R)-6-(2-amino-3-methoxypropyl)-2,7-dichloro-N-(furan-2-ylmethyl)pyrrolo[2,1-f][1,2,4]triazin-4-amine]
13 | 101 to 500 nM | COC[C@H](N)Cc1cc2c(NCc3ccco3)nc(Cl)nn2c1Br [Compound 8]
14 | 101 to 500 nM | [2H]C([2H])([2H])OCC(N)Cc1cc2c(NCc3ccco3)nc(Cl)nn2c1Br (centres unmarked) [Compound 11]
15 | 101 to 500 nM | [2H]C([2H])([2H])OC[C@H](N)Cc1cc2c(NCc3ccco3)nc(Cl)nn2c1Cl [Compound 12]
16 | 101 to 500 nM | N[C@H](Cc1cc2c(NCc3ccco3)nc(Cl)nn2c1Br)CC1CC1 [Compound 13]
17 | 101 to 500 nM | N[C@H](Cc1cc2c(NCc3ccco3)nc(Cl)nn2c1Br)CC(F)(F)F [Compound 14]
